Starred links: 1 amine or outer side, 2 acyl side, 3 side chain; linkers in the order of their positions; H or OH if unused. Non-standard residues stand in square brackets, D forms with d. Residues, ends and D or L forms follow the SMILES beside them. *: point of attachment. JQ1acid = Cc1sc2c(c1C)C(c1ccc(Cl)cc1)=N[C@@H](CC(=O)*)c1nnc(C)n1-2; X9 = O=C(C[C@@H](Cc1ccc(-c2ccccc2)cc1)N[*:1])[*:2]; dBip = N[C@H](Cc1ccc(-c2ccccc2)cc1)C(=O)O; Hyp = O=C(O)[C@@H]1C[C@@H](O)CN1; Tle = CC(C)(C)[C@H](N)C(=O)O; X8 = CN(CCOCC(=O)[*:2])[*:1]; dDap = NC[C@@H](N)C(=O)O; Ahp = NCCCCCCC(=O)O; Ahx = NCCCCCC(=O)O; AEA = NCCOCC(=O)O; GABA = NCCCC(=O)O; βAla = NCCC(=O)O
molecular target: T1, BRD4 (Homo sapiens, UniProt O60885); test: BRD4 degradation assay in EOL1 cells (immunofluorescence imaging); type: cell-based; conditions: EoL-1 eosinophilic leukemia cells, 4 hours treatment, nuclear BRD4 immunofluorescence
T1 construct: Mean 488 intensity of BRD4 quantitated in nuclear region; endogenous in cells; host or cells: EoL-1 eosinophilic leukemia cells
In short: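 EoL-1 cells treated 4 h at 37 °C with 20-point 1/3 serial dilutions (0.2% DMSO) in RPMI/10% FBS, then fixed and immunostained for BRD4. Mean nuclear BRD4 intensity measured by high-content imaging, with Hoechst nuclear masking. DMSO and no-primary-antibody controls define 0 and 100%; DC50 and maximal effect from dose-response fit.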

DC50 [nM] | Compound
< 1000 | Cc1sc2c(c1C)C(c1ccc(Cl)cc1)=N[C@@H](CC(=O)NC[C@H]1NC(=O)[C@@H](C)NC(=O)[C@@H](Cc3ccc(-c4ccccc4)cc3)NC(=O)[C@@H]3C[C@@H](O)CN3C(=O)[C@H](C(C)(C)C)NC(=O)CCCNC1=O)c1nnc(C)n1-2 [Compound 59] (cyclo([GABA][Tle][Hyp][dBip][dA][dDap](JQ1acid)))
< 50 | Cc1sc2c(c1C)C(c1ccc(Cl)cc1)=N[C@@H](CC(=O)NC[C@H]1NC(=O)[C@@H](C)NC(=O)[C@@H](Cc3ccc(-c4ccccc4)cc3)NC(=O)[C@@H]3C[C@@H](O)CN3C(=O)[C@H](C(C)(C)C)NC(=O)CCCCCNC1=O)c1nnc(C)n1-2 [Compound 60] (cyclo([Ahx][Tle][Hyp][dBip][dA][dDap](JQ1acid)))
< 50 | Cc1sc2c(c1C)C(c1ccc(Cl)cc1)=N[C@@H](CC(=O)NC[C@H]1NC(=O)[C@@H](C)NC(=O)[C@@H](Cc3ccc(-c4ccccc4)cc3)NC(=O)[C@@H]3C[C@@H](O)CN3C(=O)[C@H](C(C)(C)C)NC(=O)CCCCCCNC1=O)c1nnc(C)n1-2 [Compound 61] (cyclo([Ahp][Tle][Hyp][dBip][dA][dDap](JQ1acid)))
< 1000 | Cc1sc2c(c1C)C(c1ccc(Cl)cc1)=N[C@@H](CC(=O)NC[C@H]1NC(=O)CCNC(=O)[C@@H](Cc3ccc(-c4ccccc4)cc3)NC(=O)[C@@H]3C[C@@H](O)CN3C(=O)[C@H](C(C)(C)C)NC(=O)COCCNC1=O)c1nnc(C)n1-2 [Compound 62] (cyclo([AEA][Tle][Hyp][dBip][βAla][dDap](JQ1acid)))
< 50 | Cc1sc2c(c1C)C(c1ccc(Cl)cc1)=N[C@@H](CC(=O)NC[C@H]1NC(=O)[C@@H](C)NC(=O)[C@@H](Cc3ccc(-c4ccccc4)cc3)NC(=O)[C@@H]3C[C@@H](O)CN3C(=O)[C@H](C(C)(C)C)NC(=O)COCCN(C)C1=O)c1nnc(C)n1-2 [Compound 63] (cyclo([Hyp][dBip][dA][dDap](JQ1acid)[X8][Tle]))
> 20000 | Cc1sc2c(c1C)C(c1ccc(Cl)cc1)=N[C@@H](CC(=O)NC[C@H]1NC(=O)CNC(=O)C[C@@H](Cc3ccc(-c4ccccc4)cc3)NC(=O)[C@@H]3C[C@@H](O)CN3C(=O)[C@H](C(C)(C)C)NC(=O)COCCNC1=O)c1nnc(C)n1-2 [Compound 64] (cyclo([AEA][Tle][Hyp][X9]G[dDap](JQ1acid)))
> 20000 | Cc1sc2c(c1C)C(c1ccc(Cl)cc1)=N[C@@H](CC(=O)NC[C@H]1NC(=O)[C@@H](C)NC(=O)C[C@@H](Cc3ccc(-c4ccccc4)cc3)NC(=O)[C@@H]3C[C@@H](O)CN3C(=O)[C@H](C(C)(C)C)NC(=O)COCCNC1=O)c1nnc(C)n1-2 [Compound 65] (cyclo([AEA][Tle][Hyp][X9][dA][dDap](JQ1acid)))
< 1000 | Cc1sc2c(c1C)C(c1ccc(Cl)cc1)=N[C@@H](CC(=O)NC[C@H]1NC(=O)[C@@H](CCC(N)=O)NC(=O)[C@@H](Cc3ccc(-c4ccccc4)cc3)NC(=O)[C@@H]3C[C@@H](O)CN3C(=O)[C@H](C(C)(C)C)NC(=O)COCCNC1=O)c1nnc(C)n1-2 [Compound 66] (cyclo([AEA][Tle][Hyp][dBip][dQ][dDap](JQ1acid)))
< 50 | Cc1sc2c(c1C)C(c1ccc(Cl)cc1)=N[C@@H](CC(=O)NC[C@H]1CCCNC(=O)[C@@H](Cc3ccc(-c4ccccc4)cc3)NC(=O)[C@@H]3C[C@@H](O)CN3C(=O)[C@H](C(C)(C)C)NC(=O)COCCNC1=O)c1nnc(C)n1-2 [Compound 67]

Compound | DC50 [nM]
Cc1sc2c(c1C)C(c1ccc(Cl)cc1)=N[C@@H](CC(=O)NC[C@H]1NC(=O)[C@@H](C)NC(=O)[C@@H](Cc3ccc(-c4ccccc4)cc3)NC(=O)[C@@H]3C[C@@H](O)CN3C(=O)[C@H](C(C)(C)C)NC(=O)COCCNC1=O)c1nnc(C)n1-2 [Compound 58] (cyclo([AEA][Tle][Hyp][dBip][dA][dDap](JQ1acid))) | < 50
Cc1ncsc1-c1ccc([C@H]2NC(=O)[C@@H]3C[C@@H](O)CN3C(=O)[C@H](C(C)(C)C)NC(=O)CSC[C@H](C(N)=O)NC(=O)[C@@H](NC(=O)C[C@@H]3N=C(c4ccc(Cl)cc4)c4c(sc(C)c4C)-n4c(C)nnc43)NC(=O)CNC2=O)cc1 [Compound 68] | > 20000

— patent US12187816B2, “Macrocyclic compounds and methods of use thereof” (Genentech, Inc., priority 2020, dated 2025)
